Source: patent publication US4639444A, “3,5-dialkyl-4,6-diaryl-tetrahydro-2H-13,5-thiadiazine-2-thione derivative, process for its production and antihyperlipidemic agent containing it” (Nissan Chemical Industries Ltd., priority 1984, dated 1987)

Key:
[1] = literature, and its derivatives; cited from earlier work
[2] = tested on: emulsion-induced hyperlipidemic rats; assay: antihyperlipidemic activity in emulsion-induced hyperlipidemic rats; format: in vivo; conditions: Rattus norvegicus, po, 72 h, 300 mg/kg daily via stomach tube, 3 days, male S.D. rats, lipids emulsion, versus control group; for change in vivo at 300 mg/kg: "-" = reduction rate, read-out: Increase rate of serum HDL-Chol.; for inhibition in vivo at 300 mg/kg: read-out: Reduction rate of serum Chol.
Procedure: The antihyperlipidemic activity in emulsion-induced hyperlipidemic rats: Male S. D. rats weighing 80-90 g (4 weeks old) were used. They were devided into groups of 5 to 6 rats each. The test compounds suspended in 0.5% CMC-Na(carboxymethyl cellulose sodium salt) were given to the rats in a daily dose of 4.0 ml/kg (i.e. 300 mg/kg of the test compounds) via stomach tube every 10:00 a.m. After 30 min., lipids emulsion having the following composition was orally given to the rats in an amount of 2.5 ml per rat. During the experimental period of 3 days, the rats were fed on a standard commercial diet and water ad libitum. […] The total cholesterol and HDL cholesterol were measured. The weight of the liver was measured. To the control group, only the aqueous CMC-Na solution and the lipids emulsion were given. The fractionation of lipoproteins was conducted by a dextran sulfate-MgCl2 precipitation method. Cholesterol in serum was measured by means of a cholesterol measuring kit (Cholesterol C-Test Wako, manufactured by Wako Junyaku Co., Ltd.), and cholesterol in HDL was measured by means of NC Hi-Set, manufactured by Nippon Chemiphar Co., Ltd. In the following description, cholesterol is referred to as "Chol". Further, the reduction rate of Chol was calculated by the following equation. [formula] where A is the amount of serum Chol (mg/dl) of the control group, and B is the amount of serum Chol (mg/dl) of the group to which the therapeutic agent was administered. Likewise, the increase rate of serum HDL-Chol was calculated by the following equation. [formula] where C is the amount of serum HDL-Chol (mg/dl) of the control group, and D is the amount of serum HDL-Chol (mg/dl) of the group to which the therapeutic agent was administered.

[3] = animal experiments, Svoboda and Azarnoff, Cancer Res. 39, 3419 (1979); cited from earlier work
[4] = acute toxicity (mortality after seven days); conditions: mouse, in vivo, po, 4000 mg/kg p.o., male ddY mice
Procedure: The test compounds suspended in 0.5% CMC-Na were administered p.o. to male ddY mice. The acute toxicity was determined based on the mortality after seven days. In respect of the Compound Nos. 1, 2, 3, 4, 6, 7, 10, 12 and 13 of the present invention, the mortality was 0% even at a dose of as high as 4000 mg/kg by oral administration.

SMILES | side effects reported [1] | change in vivo at 300 mg/kg [2] [%] | inhibition in vivo at 300 mg/kg [2] [%] | hepatic carcinoma [3] | mortality at 168 h [4] [%]
CCOC(=O)C(C)(C)Oc1ccc(Cl)cc1 [Clofibrate, reference compound] | myalgia or hepatic insufficiency,and they are likely to lead to gallstone formation | -8 | 45 | brings about hepatic carcinoma on animal experiments | 
COc1ccc(C2SC(=S)N(C)C(c3ccc(OC)cc3)N2C)cc1 (stereo not shown) [Compound No. 1, 3,5-Dimethyl-4,6-di(p-methoxyphenyl)-tetrahydro-2H-1,3,5-thiadiazine-2-thione] |  | 53 | 42 |  | 0
COc1cccc(C2SC(=S)N(C)C(c3cccc(OC)c3)N2C)c1 (stereo not shown) [Compound No. 2] |  | 25 | 41 |  | 0
COc1ccccc1C1SC(=S)N(C)C(c2ccccc2OC)N1C (stereo not shown) [Compound No. 3] |  | 33 | 32 |  | 0
Cc1ccc(C2SC(=S)N(C)C(c3ccc(C)cc3)N2C)cc1 (stereo not shown) [Compound No. 4] |  | 99 | 49 |  | 0
Cc1cccc(C2SC(=S)N(C)C(c3cccc(C)c3)N2C)c1 (stereo not shown) [Compound No. 5] |  | 52 | 44 |  | 
Cc1ccccc1C1SC(=S)N(C)C(c2ccccc2C)N1C (stereo not shown) [compound 6] |  | 61 | 40 |  | 0
CCOc1ccccc1C1SC(=S)N(C)C(c2ccccc2OCC)N1C (stereo not shown) [compound 7] |  | 14 | 37 |  | 0
CN1C(=S)SC(c2ccc(F)cc2)N(C)C1c1ccc(F)cc1 (stereo not shown) [compound 8] |  | 37 | 26 |  | 
CC(C)c1ccc(C2SC(=S)N(C)C(c3ccc(C(C)C)cc3)N2C)cc1 (stereo not shown) [compound 9] |  | 56 | 30 |  | 
CN1C(=S)SC(c2ccc(Oc3ccccc3)cc2)N(C)C1c1ccc(Oc2ccccc2)cc1 (stereo not shown) [compound 10] |  | -23 | 53 |  | 0
CSc1ccc(C2SC(=S)N(C)C(c3ccc(SC)cc3)N2C)cc1 (stereo not shown) [compound 11] |  | 53 | 13 |  | 
COc1ccc(C2SC(=S)N(C)C(c3ccc(OC)cc3OC)N2C)c(OC)c1 (stereo not shown) [compound 12] |  | 46 | 31 |  | 0
CN1C(=S)SC(c2ccc3c(c2)OCO3)N(C)C1c1ccc2c(c1)OCO2 (stereo not shown) [compound 13] |  | 54 | 52 |  | 0
COc1cc(C2SC(=S)N(C)C(c3cc(OC)c(OC)c(OC)c3)N2C)cc(OC)c1OC (stereo not shown) [compound 14] |  | 6 | 19 |  | 
CCN1C(=S)SC(c2ccccc2)N(CC)C1c1ccccc1 (stereo not shown) [compound 15] |  | 31 | 45 |  | 
COc1cccc(C2SC(=S)N(C)C(c3cccc(OC)c3OC)N2C)c1OC (stereo not shown) [compound 16] |  | 44 | 34 |  | 
O=C(O)c1cccnc1 [nicotinic acid] | flashing or gastroenteric troubles |  |  |  | 
